Source: patent US4816471A, “Substituted heterocyclic benzamides, methods of preparing them and their application as anti-emetics” (Societe d'Etudes Scientifiques et Industrielles de …, priority 1978, dated 1989)
Where a name gives a salt, the structure may show the parent alone.

Tests used:
[1] = system: anti-emetic power relative to apomorphine in dogs; experiment: anti-emetic power relative to apomorphine in dogs by the method of Chen and Ensor (subcutaneous administration); type: in vivo; conditions: Canis lupus familiaris, sc, Table 1, s.c. 30 minutes before apomorphine 100 ug/kg s.c.
Method: (§1) The pharmacodynamic tests on the compounds of this invention, and particularly a study of their anti-emetic power have shown strong activity on the nervous system as apomorphine antagonists. […] In accordance with the above-mentioned procedures, the compounds of the invention were administered subcutaneously 30 minutes before the administration of apomorphine, which was administered subcutaneously in a dose of 100 ug/kg.

[2] = system: biting sterotypes induced by apomorphine; experiment: potentiation of biting sterotypes induced by apomorphine in mice, Pedeson's method; type: in vivo; conditions: Table 6, apomorphine 10 mg/kg, interperitoneal; for ED50: Mus musculus, ip
Method: The compounds were also tested for potentiation of biting sterotypes induced by apomorphine (10 (mg/kg) in mice, under interperitoneal administration in accordance with Pedeson's method in Brit J. Pharmacol. 1968, 34 (1), 219-220 with the following results: […]

[3] = system: chewing stereotypes induced by dexamphetamine; experiment: antagonism to chewing stereotypes induced by dexamphetamine in rats, Janssen's method; type: in vivo; conditions: Table 5, dexamphetamine 10 mg/kg; for ED50: Rattus norvegicus, sc; for % antagonism to chewing stereotypes induced by dexamphetamine: s.c., at 100 mg/kg
Method: The compounds were also tested for antagonism to chewing stereotypes induced by dexamphetamine (10 mg/kg) in rats, by Janssen's method in Arzn. Forsch. 1961, 11, 932-938 under subcutaneous administration with the following results: […]

[4] = acute toxicity in the mouse; conditions: in vivo
Excerpt: The acute toxicity of the compounds of the invention has been studied in the mouse. The LD50 's are set out in the following Table 3. […] This characteristic is highly desirable because the possibility of toxic effects due to the administration of therapeutic doses is thereby minimized.

[5] = system: chewing stereotypes induced by apomorphine; experiment: antagonism to chewing stereotypes induced by apomorphine in rats, method of Janssen; type: in vivo; conditions: Table 4, apomorphine 1.25 mg/kg; for ED50: Rattus norvegicus, sc; for % antagonism to chewing stereotypes induced by apomorphine: s.c., at 200
Method: The neurological activity of the compounds of the invention was compared to the activity of prior art compounds in U.S. Pat. No. 4,172,143 and with a standard in this field, Sulpiride, N-[(1-ethylpyrrolidinyl-2)methyl]-2-methoxy-5 sulphamoyl benzamide. The compounds were tested for antagonism to chewing stereotypes induced by apomorphine (1.25 mg/kg in rats, according to the method of Janssen in Arzn. Forsch. 1960-10, 1003-5, under subcutaneous administration and the results were as follows: […]

[6] = system: anti-emetic power relative to apomorphine in dogs; experiment: anti-emetic ED50 under oral administration (procedure of Example 29); type: in vivo; conditions: Canis lupus familiaris, Table 2
Method: as §1
Compounds SLC-036, 77205 and 77149 are disclosed in U.S. Pat. No. 4,172,143 for comparison purposes, as Examples 10, 33 and 37 therein. The results for those compounds are reported in Table IX of the '143 Patent and are believed to represent results from oral administration.
Pharmacological tests were carried out under oral administration to determine anti-emetic ED50 in accordance with the procedure of Example 29 with the following results: […]

[7] = system: anti-emetic power relative to apomorphine in dogs; conditions: cited from earlier work; for ED50 (Prior Art Compounds, Results Reported in U.S. Pat No. 4,172,143): Table 1, method of administration believed oral; for ED50 (oral): Table 2, prior art compounds, same values as reported in U.S. Pat. No. 4,172,143
[8] = system: stereotypes induced by apomorphine; experiment: potentiation of stereotypes induced by apomorphine in rats; type: in vivo; conditions: Table 7, apomorphine 0.25 mg/kg, intraperitoneal, at 8 mg/kg
Method: The compound of Example 2 was tested against sulpiride for potentiation of stereotypes induced by apomorphine (0.25 mg/kg) in rats under intraperitoneal administration with the following results: […]

Compound	ED50 [1] [µg/kg]	ED50 [2] [mg/kg]	ED50 [3] [mg/kg]	LD50 ([4]; I.V. (intravenous)) [mg/kg]	LD50 ([4]; P.O. (oral)) [mg/kg]	LD50 ([4]; ip, I.P. (intraperitoneal)) [mg/kg]	LD50 ([4]; sc, S.C. (subcutaneous)) [mg/kg]	ED50 [5] [mg/kg]	ED50 [6] [µg/kg]	ED50 (Prior Art Compounds, Results Reported in U.S. Pat No. 4,172,143) [7] [µg/kg]	ED50 (oral) [7] [µg/kg]	% antagonism to chewing stereotypes induced by apomorphine [5] [%]	% antagonism to chewing stereotypes induced by dexamphetamine [3] [%]	% potentiation of stereotypes induced by apomorphine [8] [%]	% potentiation of biting sterotypes induced by apomorphine ([2]; at 4 mg/kg) [%]
CNS(=O)(=O)c1cc(OC)c(OC)c(C(=O)NCC2CCCN2CC2=CCCCC2)c1 (stereo not drawn) [Example 12, N-(1-cyclohexenylmethyl 2-pyrrolidinylmethyl) 2,3-dimethoxy 5-methylsulphamoyl benzamide]	1.15	0.33	1.5	57.8 to 62	540 to 560	198 to 200	297 to 319	4	–	–	–	–	–	–	–
CNS(=O)(=O)c1ccc(OC)c(C(=O)NCC2CCCN2CC2=CCCCCC2)c1 (stereo not drawn) [Example 13, N-(1-cycloheptenylmethyl 2-pyrrolidinylmethyl) 2-methoxy 5-methylsulphamoylbenzamide]	0.5	–	0.54	45.5 to 48	312 to 330	128 to 140	322 to 336	1.5	–	–	–	–	–	–	–
COc1ccc(S(N)(=O)=O)cc1C(=O)NCC1CCCN1CC1=CCCCC1 (stereo not drawn) [Example 14, N-[1(1-cyclohexenylmethyl) 2-pyrrolidinylmethyl]2-methoxy 5-sulphamoyl benzamide]	0.85	–	10	82.5 to 85.5	525 to 542	294 to 317	630 to 640	16.4	1.2	–	–	–	–	–	–
CNS(=O)(=O)c1ccc(OC)c(C(=O)NCC2CCCN2CC2=CCCCC2)c1 (stereo not drawn) [Example 15, N-(1-cyclohexenylmethyl 2-pyrrolidinylmethyl) 2-methoxy 5-methylsulphamoyl benzamide]	0.21	–	0.78	44.2 to 46.5	540 to 558	204 to 208	462 to 494	1.22	1.1	–	–	–	–	–	–
CCS(=O)(=O)c1cc(OC)c(OC)c(C(=O)NCC2CCCN2CC2CC2)c1 (stereo not drawn) [Example 16, N-(1-cyclopropylmethyl 2-pyrrolidinylmethyl) 2,3-dimethoxy 5-ethylsulphonylbenzamide, hydrochloride]	–	0.25	1.34	92.9 to 97.2	588 to 598	303 to 338	595 to 597	3.2	0.23	–	–	–	–	–	–
COc1cc2[nH]nnc2cc1C(=O)NCC1CCCN1CC1=CCCCC1 (stereo not drawn) [Example 22, N-(1-cyclohexenylmethyl 2-pyrrolidinylmethyl) 2-methoxy 4,5-azimido benzamide]	2	–	–	–	–	–	–	–	–	–	–	–	–	–	–
COc1ccc(S(=O)(=O)N(C)C)cc1C(=O)NCC1CCCN1CC1CC1 (stereo not drawn) [Example 77149, N--(1cyclopropylmethyl 2pyrrolidinylmethyl)-2-methoxy-5-dimethylsulphamoyl benzamide]	–	–	–	–	–	–	–	–	–	40.0	40.00	–	–	–	–
COc1ccc(S(N)(=O)=O)cc1C(=O)NCC1CCCN1CC1CCCCC1 (stereo not drawn) [Example 77205, N--(1cyclohexylmethyl 2pyrrolidinylmethyl)-2-methoxy-5-sulphamoyl benzamide, reference compound]	–	–	19	–	–	–	–	–	–	14.0	14.00	20	–	–	–
COc1ccc(S(N)(=O)=O)cc1C(=O)NCC1CCCN1CC1CC1 (stereo not drawn) [SLC-036, N--(1cyclopropylmethyl 2pyrrolidinylmethyl)-2-methoxy-5-sulphamoyl benzamide, reference compound]	–	–	–	–	–	–	–	–	–	37.0	37.00	0	0	–	–
CCN1CCCC1CNC(=O)c1cc(S(N)(=O)=O)ccc1OC (stereo not drawn) [Sulpiride, N-[(1-ethylpyrrolidinyl-2)methyl]-2-methoxy-5 sulphamoyl benzamide, reference compound]	–	–	–	–	–	–	–	–	–	–	–	0	0	30	12
